One assay relates to L. major promastigotes. The experiment in a line: Activity against L. major promastigotes (MTT, 72 h). Type of assay: cell-based, Leishmania major. The conditions noted are these: mean ± SD, read-out: EC50 L. major prom. Here is the method: (§1) L. major promastigotes were isolated and maintained according to a described method. BALB/c mice were injected at the hind footpads with 1 × 10^6 L. major metacyclic promastigotes. L. major amastigotes were collected from the infected mice. After 8 weeks had elapsed since inoculation, Schneider’s medium (Invitrogen, USA) containing antibiotics and 10% FBS was used to transform isolated amastigotes into promastigotes by incubation at 26 °C. Amastigote-derived promastigotes with less than five in vitro passages were only used for infection.
To assess the activity of the compounds against L. major promastigotes, 10^6 promastigotes/mL were cultured in 96-well plates in Schneider’s medium with 10% FBS. Then, the compounds or amphotericin B (AmB) were added to obtain the final concentrations (50, 25, 12.5, 6.25, 3.13, 1.65, 0.75, or 0.37 μg mL^–1). Negative control wells contained cultures with DMSO (1%) only. Plates were incubated at 26 °C for 72 h to evaluate the antiproliferative effect. The colorimetric MTT method was used to count viable promastigotes under a microplate absorbance spectrophotometer (xMark, Bio-Rad, USA) at 570 nm. The experiment was performed in triplicate.

For another assay, the system named is L. major amastigotes. Kind of assay: Activity against L. major amastigotes in peritoneal macrophages (percentage of infected macrophages, Giemsa, 72 h). Conditions: Leishmania major, intracellular amastigotes, mean ± SD, read-out: EC50 L. major ama. Type of assay: cell-based, Leishmania major. As to the method: as §1
(§2) Female BALB/c mouse peritoneal macrophages (6–8 weeks old) were used to culture L. major amastigotes to assess the activity of the compounds against amastigotes. Briefly, 1 mL of 3% Brewer’s thioglycollate medium/mouse was injected into the peritoneal cavity. After 4 days, the abdominal skin was removed to expose the peritoneal wall. Then, 3 mL of RPMI 1640 medium was injected before cells were collected by aspiration, whereupon 96-well plates containing RPMI 1640 medium with 10% FBS were used to culture 5 × 10^4 cells/well, which were incubated at 37 °C under 5% CO2 for 4 h. After washing with PBS, RPMI 1640 medium containing 5 × 10^5 promastigotes were added to each well. Next, the cells were incubated at 37 °C under humidified 5% CO2 for 24 h to enhance infection and differentiation of amastigotes. Washing with PBS several times removed free promastigotes. Fresh complete RPMI 1640 medium containing one of the tested compounds or AmB at the desired final concentration (50, 25, 12.5, 6.25, 3.13, 1.65, 0.75, or 0.37 μg mL^–1) was added and incubated at 37 °C under a humidified 5% CO2 atmosphere for 72 h. DMSO (1%), only in complete RPMI media, was used as the negative control. The percentage of infected macrophages was assessed microscopically after the medium was removed, followed by washing with PBS, fixation with methanol, and staining with Giemsa. The reading was performed in triplicate. Handling of the laboratory animals followed the instructions and rules of the Committee of Research Ethics, Deanship of Scientific Research, Qassim University, permission number 20–03–20.

The subject of assay [1] is T. gondii tachyzoites (RH strain). The experiment in a line: Anti-Toxoplasma activity (infection index in Vero cells, 72 h). The conditions noted are these: Toxoplasma gondii, Vero, mean ± SD. Type of assay: cell-based, Toxoplasma gondii. As to the method:
Tachyzoites of the T. gondii RH strain were cultivated in Vero cells according to a published method. Complete RPMI 1640 medium (Invitrogen, USA) with 10% fetal bovine serum (FBS, Invitrogen, USA) was used to culture Vero cells in 96-well plates (5 × 10^3 cells/well in 200 μL of medium), which were incubated at 37 °C and under 5% CO2 for 24 h. This was followed by washing with phosphate-buffered saline (PBS) to remove the medium. Then, RPMI 1640 medium with 2% FBS containing T. gondii tachyzoites (RH strain) at a ratio of 5 (parasite): 1 (Vero cells) was added. After incubation at 37 °C and under 5% CO2 for 5 h, the cells were washed with PBS and overlaid with medium containing one of the tested compounds or atovaquone (ATO) at 50, 25, 12.5, 6.25, 3.13, 1.65, 0.75, or 0.37 μg mL^–1.
After incubation at 37 °C and under 5% CO2 for 72 h, the cells were stained with 1% toluidine before being examined under an inverted photomicroscope (MCD-400, Leica, Japan) to determine the T. gondii infection index (number of infected cells from 200 tested cells). The experiment was performed in triplicate.

A further assay deals with Vero cells. The experiment in a line: Cytotoxicity assay (MTT), Vero cells. Type of assay: cell-based, African Green Monkey. The conditions noted are these: Chlorocebus sabaeus, 72 h, mean ± SD. Here is the method: (§3) The MTT colorimetric assay was conducted to assess the cytotoxicity of the compounds according to a method described previously. Briefly, Vero cells or macrophages were cultured in 96-well plates (5 × 10^3 cells/well/200 μL) in RPMI 1640 medium with 10% FBS at 37 °C and under 5% CO2 for 24 h. Thereafter, PBS was used to wash the cells. Then, the compounds in RPMI complete medium with 10% FBS (at varying concentrations of 50, 25, 12.5, 6.25, 3.13, 1.65, 0.75, or 0.37 μg mL^–1) were added to 96-well plates and incubated for 72 h. Cells treated with a medium containing only DMSO (1%) were used as the negative control. After washing, MTT (1 mg mL^–1 in RPMI 1640 medium) was added to each well. The cells were incubated for 4 h, and the supernatant was removed. Next, 150 μL of DMSO was added, and a microplate absorbance spectrophotometer was applied for colorimetric analysis (λ = 540 nm). Cytotoxic effects were expressed by IC50 values (concentration that caused a 50% reduction of viable cells). The experiment was performed in triplicate.

In a further assay the test system is macrophages. Kind of assay: Cytotoxicity assay (MTT), macrophages. Type of assay: cell-based, BALB/c mouse. The conditions noted are these: Mus musculus, Macrophage; 72 h, mean ± SD; read-out: IC50 macro. As to the method:
as §2, §3

Assay [2] relates to L. amazonensis promastigotes. On the set-up: method as in Oliveira and co-workers. Conditions: ref Oliveira and co-workers, cited from earlier work.
The test system of assay [3] is L. amazonensis amastigotes. Also on record: method as in Oliveira and co-workers. The conditions noted are these: ref Oliveira and co-workers; read-out: IC50 against L. amazonensis amastigotes; cited from earlier work.

Each structure is given as a SMILES string. Where two headings read alike, the source gives them in different places. A value given as a limit tells only on which side of the number the result lay.

Here are results for six molecules from PMC12290673, “Antileishmanial and Antitoxoplasmal Activities of 1,4-Dihydropyridines” (ACS Omega, 2025).

`CCOC(=O)C1=C(C)NC2=C(C(=O)CC(C)(C)C2)C1c1ccc2c(c1)OCO2` (stereo not shown) [Compound 12]: the EC50 is less than 50 µM with L. major promastigotes (Leishmania major), 47.5 ± 6.2 µM with L. major promastigotes, more than 60.6 µM with L. major amastigotes and 30.3 ± 5.2 µM in assay [1]. The IC50 in the assay on Vero cells was 14.9 ± 2.6 µM; with macrophages, 42.5 ± 7.2 µM. Moreover, the “activity against L. amazonensis promastigotes” value (from here on “activity”) in assay [2] is “inactive”.

In the case of `CCOC(=O)C1=C(C)NC2=C(C(=O)CC(C)(C)C2)C1c1c(OC)cc(OC)cc1OC` (stereo not shown) [Compound 14], the values for the EC50 (in the assay on L. major amastigotes; in assay [1]) were 21 ± 3.9 µM and more than 48.4 µM, respectively. The IC50 was found to be 22.8 ± 3.3 µM with Vero cells and 16.8 ± 3.1 µM with macrophages. In assay [2], the “activity” value was “inactive”.

In the case of `CCOC(=O)C1=C(C)NC(C)=C(C(=O)OCC)C1c1cccc([N+](=O)[O-])c1` [Compound 22], the concentration for a half-maximal effect (EC50) was less than 50 µM with L. major promastigotes (Leishmania major), 46.5 ± 7.7 µM in the assay with L. major promastigotes and more than 55.6 µM with L. major amastigotes. The values for the IC50 in the assay with Vero cells and with macrophages were 29.9 ± 4.4 µM and 46.5 ± 7.4 µM, respectively. Moreover, in assay [2], the “activity” value was “inactive”.

For `CCOC(=O)C1=C(C)NC2=C(C(=O)CC(C)(C)C2)C1c1cccc(F)c1` (stereo not shown) [Compound 7], the EC50 (in the assay with L. major promastigotes (Leishmania major); in the assay on L. major amastigotes; in assay [1]) was more than 58.2 µM each time. Also, the values for the IC50 (in the assay on Vero cells; in the assay with macrophages; in assay [3]) were more than 58.2 µM, more than 58.2 µM and 12.5 µM, respectively.

For `CCOC(=O)C1=C(C)NC(C)=C(C(=O)OCC)C1c1cc(OC)c(OC)c(OC)c1` [Compound 24], the EC50 was less than 50 µM with L. major promastigotes (Leishmania major), 42.7 ± 8 µM in the assay with L. major promastigotes, more than 49.6 µM with L. major amastigotes and more than 49.6 µM in assay [1]. Also, the IC50 was found to be 14.8 ± 2.6 µM in the assay with Vero cells and 34.1 ± 5.5 µM in the assay with macrophages. The “activity” value in assay [2] is “inactive”.

`CCOC(=O)C1=C(C)NC2=C(C(=O)CC(C)(C)C2)C1c1cc(OC)c(OC)c(OC)c1` (stereo not shown) [Compound 13]: the EC50 (with L. major promastigotes (Leishmania major); in the assay with L. major amastigotes; in assay [1]) was more than 48.4 µM each time. Also, the IC50 in the assay on Vero cells is more than 48.4 µM; with macrophages it was more than 48.4 µM; in assay [2] (read-out: IC50 against L. amazonensis promastigotes), 24.6 µM.

For orientation: EC50 means the concentration at which the effect is half-maximal. A word on the IC50: it is the point on the concentration scale where inhibition reaches its midpoint.
